Activity calls are given as the source filed them. No rule for the calls is given here.
System: CCRIS mutagenicity, Ames/micronucleus/aberration tests
Experiment: CCRIS mutagenicity studies
[1] = Test System: AMES SALMONELLA TYPHIMURIUM, Strain/Indicator: TA98, Metabolic Activation: NONE, Method: STANDARD PLATE
[2] = Test System: AMES SALMONELLA TYPHIMURIUM, Strain/Indicator: TA98, Metabolic Activation: RAT, LIVER, S-9, AROCLOR 1254, Method: STANDARD PLATE
[3] = Test System: AMES SALMONELLA TYPHIMURIUM, Strain/Indicator: TA100, Metabolic Activation: NONE, Method: STANDARD PLATE
[4] = Test System: AMES SALMONELLA TYPHIMURIUM, Strain/Indicator: TA100, Metabolic Activation: RAT, LIVER, S-9, AROCLOR 1254, Method: STANDARD PLATE
[5] = Test System: AMES SALMONELLA TYPHIMURIUM, Strain/Indicator: TA1535, Metabolic Activation: NONE, Method: STANDARD PLATE
[6] = Test System: AMES SALMONELLA TYPHIMURIUM, Strain/Indicator: TA1535, Metabolic Activation: RAT, LIVER, S-9, AROCLOR 1254, Method: STANDARD PLATE
[7] = Test System: AMES SALMONELLA TYPHIMURIUM, Strain/Indicator: TA1537, Metabolic Activation: NONE, Method: STANDARD PLATE
[8] = Test System: AMES SALMONELLA TYPHIMURIUM, Strain/Indicator: TA1537, Metabolic Activation: RAT, LIVER, S-9, AROCLOR 1254, Method: STANDARD PLATE
[9] = Test System: AMES SALMONELLA TYPHIMURIUM, Strain/Indicator: TA1538, Metabolic Activation: NONE, Method: STANDARD PLATE
[10] = Test System: AMES SALMONELLA TYPHIMURIUM, Strain/Indicator: TA1538, Metabolic Activation: RAT, LIVER, S-9, AROCLOR 1254, Method: STANDARD PLATE

**Q.** Which mutagenic call (End Point: IN VITRO CHROMOSOMAL ABERRATIONS, Test System: CHINESE HAMSTER OVARY CELLS, Metabolic Activation: NONE) does the source give for `O=C([O-])c1cc(N=Nc2ccc(-c3ccc(N/N=c4/c(=O)cc/c(=N\Nc5cc(S(=O)(=O)[O-])ccc5[O-])c4=O)cc3)cc2)ccc1[O-].[Cu+2].[Na+].[Na+]` here?
**A.** inactive; negative

**Q.** And the mutagenic call (End Point: IN VITRO CHROMOSOMAL ABERRATIONS, Test System: CHINESE HAMSTER OVARY CELLS, Metabolic Activation: RAT, LIVER, S-9, AROCLOR 1254)?
**A.** inactive; negative

**Q.** And the mutagenic call (Test System: AMES SALMONELLA TYPHIMURIUM, Strain/Indicator: TA98, Metabolic Activation: HAMSTER, LIVER, S-9, Method: PREINCUBATION (PRIVAL METHOD))?
**A.** active; positive

**Q.** What about the mutagenic call [1] of the same molecule?
**A.** inactive; negative

**Q.** What about the mutagenic call [2] of the same molecule?
**A.** inactive; negative

**Q.** And the mutagenic call [3]?
**A.** inactive; negative

**Q.** And the mutagenic call [4]?
**A.** inactive; negative

**Q.** What about the mutagenic call [5] of the same molecule?
**A.** inactive; negative

**Q.** And the mutagenic call [6]?
**A.** inactive; negative

**Q.** What about the mutagenic call [7] of the same molecule?
**A.** inactive; negative

**Q.** What about the mutagenic call [8] of the same molecule?
**A.** inactive; negative

**Q.** What about the mutagenic call [9] of the same molecule?
**A.** inactive; negative

**Q.** And the mutagenic call [10]?
**A.** inactive; negative

**Q.** With `O=C(O)c1cc(Cl)cc2cccnc12` as the molecule, how does the mutagenic call [1] read?
**A.** inactive; negative

**Q.** And the mutagenic call [2]?
**A.** active; positive

**Q.** What about the mutagenic call [3] of the same molecule?
**A.** inactive; negative

**Q.** And the mutagenic call [4]?
**A.** active; positive

**Q.** What about the mutagenic call [5] of the same molecule?
**A.** inactive; negative

**Q.** And the mutagenic call [6]?
**A.** inactive; negative

**Q.** And the mutagenic call [7]?
**A.** inactive; negative

**Q.** And the mutagenic call [8]?
**A.** active; positive

**Q.** How did the mutagenic call [1] turn out when `C[n+]1c2cc(N)ccc2cc2ccc(N)cc21` (tested in a mixture with another compound) was run?
**A.** inactive; negative

**Q.** What about the mutagenic call [2] of the same molecule?
**A.** active; positive

**Q.** What about the mutagenic call [7] of the same molecule?
**A.** inactive; negative

**Q.** What about the mutagenic call [8] of the same molecule?
**A.** active; positive

**Q.** And the mutagenic call [9]?
**A.** inactive; negative

**Q.** And the mutagenic call [10]?
**A.** active; positive

**Q.** What about the mutagenic call (Test System: CHINESE HAMSTER OVARY, Strain/Indicator: CHO-K1-BH4 (HGPRT), Metabolic Activation: RAT, LIVER, S-9, AROCLOR, Method: SUSPENSION/PLATE) of the same molecule?
**A.** active; positive

**Q.** Which mutagenic call (Test System: AMES SALMONELLA TYPHIMURIUM, Strain/Indicator: TA98(1,8-DNP6), Metabolic Activation: NONE, Method: STANDARD PLATE) does the source give for `O=[N+]([O-])c1ccc2ccc3cccc([N+](=O)[O-])c3c2c1` here?
**A.** active; positive

**Q.** And the mutagenic call (Test System: AMES SALMONELLA TYPHIMURIUM, Strain/Indicator: TA98(NR), Metabolic Activation: NONE, Method: STANDARD PLATE)?
**A.** active; positive

**Q.** What about the mutagenic call [1] of the same molecule?
**A.** active; positive

**Q.** What about the mutagenic call [3] of the same molecule?
**A.** active; positive

**Q.** What about the mutagenic call (Test System: AMES SALMONELLA TYPHIMURIUM, Strain/Indicator: YG1021, Metabolic Activation: NONE, Method: STANDARD PLATE) of the same molecule?
**A.** active; positive

**Q.** What about the mutagenic call (Test System: AMES SALMONELLA TYPHIMURIUM, Strain/Indicator: YG1024, Metabolic Activation: NONE, Method: STANDARD PLATE) of the same molecule?
**A.** active; positive

**Q.** And the mutagenic call (Test System: AMES SALMONELLA TYPHIMURIUM, Strain/Indicator: YG1026, Metabolic Activation: NONE, Method: STANDARD PLATE)?
**A.** active; positive

**Q.** What about the mutagenic call (Test System: AMES SALMONELLA TYPHIMURIUM, Strain/Indicator: YG1029, Metabolic Activation: NONE, Method: STANDARD PLATE) of the same molecule?
**A.** active; positive

**Q.** What does the source list for `Cc1ccc(N=Nc2c(O)ccc3ccccc23)c(S(=O)(=O)O)c1`?
**A.** mutagenic call [1]: inactive; negative; mutagenic call (Test System: AMES SALMONELLA TYPHIMURIUM, Strain/Indicator: TA98, Metabolic Activation: RAT, LIVER, S-9, Method: STANDARD PLATE): inactive; negative; mutagenic call [3]: inactive; negative; mutagenic call (Test System: AMES SALMONELLA TYPHIMURIUM, Strain/Indicator: TA100, Metabolic Activation: RAT, LIVER, S-9, Method: STANDARD PLATE): inactive; negative

**Q.** Which results are given for `O=C1c2c(O)ccc([N+](=O)[O-])c2C(=O)c2c([N+](=O)[O-])ccc(O)c21`?
**A.** mutagenic call (Test System: AMES SALMONELLA TYPHIMURIUM, Strain/Indicator: TA98, Metabolic Activation: HAMSTER, LIVER, S-9, AROCLOR 1254 (10%), Method: PREINCUBATION): active; positive; mutagenic call (Test System: AMES SALMONELLA TYPHIMURIUM, Strain/Indicator: TA98, Metabolic Activation: NONE, Method: PREINCUBATION): active; positive; mutagenic call [1]: active; positive; mutagenic call (Test System: AMES SALMONELLA TYPHIMURIUM, Strain/Indicator: TA98, Metabolic Activation: RAT, LIVER, S-9, AROCLOR 1254 (10%), Method: PREINCUBATION): active; positive; mutagenic call [2]: active; positive; mutagenic call (Test System: AMES SALMONELLA TYPHIMURIUM, Strain/Indicator: TA100, Metabolic Activation: HAMSTER, LIVER, S-9, AROCLOR 1254 (10%), Method: PREINCUBATION): active; positive; mutagenic call (Test System: AMES SALMONELLA TYPHIMURIUM, Strain/Indicator: TA100, Metabolic Activation: NONE, Method: PREINCUBATION): active; positive; mutagenic call [3]: active; positive; mutagenic call (Test System: AMES SALMONELLA TYPHIMURIUM, Strain/Indicator: TA100, Metabolic Activation: RAT, LIVER, S-9, AROCLOR 1254 (10%), Method: PREINCUBATION): active; positive; mutagenic call [4]: active; positive; mutagenic call (Test System: AMES SALMONELLA TYPHIMURIUM, Strain/Indicator: TA1535, Metabolic Activation: HAMSTER, LIVER, S-9, AROCLOR 1254 (10%), Method: PREINCUBATION): active; positive; mutagenic call (Test System: AMES SALMONELLA TYPHIMURIUM, Strain/Indicator: TA1535, Metabolic Activation: NONE, Method: PREINCUBATION): active; positive; mutagenic call [5]: inactive; negative; mutagenic call (Test System: AMES SALMONELLA TYPHIMURIUM, Strain/Indicator: TA1535, Metabolic Activation: RAT, LIVER, S-9, AROCLOR 1254 (10%), Method: PREINCUBATION): active; positive; mutagenic call (Test System: AMES SALMONELLA TYPHIMURIUM, Strain/Indicator: TA1537, Metabolic Activation: HAMSTER, LIVER, S-9, AROCLOR 1254 (10%), Method: PREINCUBATION): active; positive; mutagenic call (Test System: AMES SALMONELLA TYPHIMURIUM, Strain/Indicator: TA1537, Metabolic Activation: NONE, Method: PREINCUBATION): active; positive; mutagenic call [7]: active; positive; mutagenic call (Test System: AMES SALMONELLA TYPHIMURIUM, Strain/Indicator: TA1537, Metabolic Activation: RAT, LIVER, S-9, AROCLOR 1254 (10%), Method: PREINCUBATION): active; positive; mutagenic call [8]: active; positive; mutagenic call [9]: active; positive; mutagenic call [10]: active; positive; mutagenic call (Test System: AMES SALMONELLA TYPHIMURIUM, Strain/Indicator: TA1978, Metabolic Activation: NONE, Method: STANDARD PLATE): active; positive; mutagenic call (Test System: AMES SALMONELLA TYPHIMURIUM, Strain/Indicator: TA1978, Metabolic Activation: RAT, LIVER, S-9, AROCLOR 1254, Method: STANDARD PLATE): active; positive

**Q.** How did the mutagenic call [1] turn out when `Oc1ccc2c(ccc3[nH]c4ccc5ccccc5c4c32)c1` was run?
**A.** inactive; negative

**Q.** What about the mutagenic call (Test System: AMES SALMONELLA TYPHIMURIUM, Strain/Indicator: TA98, Metabolic Activation: RAT, LIVER, S-9, 3-METHYLCHOLANTHRENE, Method: STANDARD PLATE) of the same molecule?
**A.** active; positive

**Q.** And the mutagenic call [3]?
**A.** inactive; negative

**Q.** What about the mutagenic call (Test System: AMES SALMONELLA TYPHIMURIUM, Strain/Indicator: TA100, Metabolic Activation: RAT, LIVER, S-9, 3-METHYLCHOLANTHRENE, Method: STANDARD PLATE) of the same molecule?
**A.** active; positive

**Q.** And the mutagenic call (Test System: AMES SALMONELLA TYPHIMURIUM, Strain/Indicator: TM677, Metabolic Activation: NONE, Method: PREINCUBATION)?
**A.** inactive; negative

**Q.** And the mutagenic call (Test System: AMES SALMONELLA TYPHIMURIUM, Strain/Indicator: TM677, Metabolic Activation: RAT, LIVER, S-9, 3-METHYLCHOLANTHRENE (1%), Method: PREINCUBATION)?
**A.** active; positive

**Q.** What about the mutagenic call (Test System: AMES SALMONELLA TYPHIMURIUM, Strain/Indicator: TM677, Metabolic Activation: RAT, LIVER, S-9, 3-METHYLCHOLANTHRENE (10%), Method: PREINCUBATION) of the same molecule?
**A.** active; positive

**Q.** And the mutagenic call (Test System: AMES SALMONELLA TYPHIMURIUM, Strain/Indicator: TM677, Metabolic Activation: RAT, LIVER, S-9, AROCLOR 1254 (10%), Method: PREINCUBATION)?
**A.** active; positive

From PubChem BioAssay AID1259407 (Chemical Carcinogenesis Research Information System (CCRIS), 2018)
